Tests used:
[1] = system: HIV-specific polyfunctional CD8 T cells; test: Induced HIV-specific polyfunctional CD8+ T cells in PBMC cultures from HIV-1 infected subjects on cART; type: cell-based, human; conditions: for Median HIV-specific polyfunctional CD8 T cells (% proliferating CD8+ cells double positive for IFN-γ and TNF-α): 5 subjects, vehicle 0.73% (Example 15 group), 0.13% (Example 98 group)
HIV-infected CD4 T cells = test: PGT121 antibody-mediated killing of HIV-infected CD4 T cells, monocyte effector model; type: cell-based, human; conditions: monocytes from 1 subject, 11 or 33 nM, 1 day
Excerpt: NK cells and monocytes mediate antibody-dependent cellular cytotoxicity (ADCC) and antibody-dependent cellular phagocytosis (ADCP) respectively. To assess the ability of the compound of Example 15 to enhance ADCC and ADCP, two models were developed using monocytes or PBMCs as effector cells and HIV-infected CD4 T cells as target cells. PBMCs were isolated from 3 healthy subjects' leukaphereses (AllCells, participant IDs A4593, A4596, A4606), as described above. CD4 T cells were isolated from PBMCs using negative selection magnetic beads (EasySep, StemCell Technologies). CD4 T cells were spinfected with HIV-1 isolate 92HT593 (NIH AIDS Reagent Program) and cultured for 5 days at 37° C. For the PBMC model, autologous PBMCs were cultured for 5 days with vehicle control (DMSO) or Example 15 at 100 or 1000 nM. […] Marker staining was measured by flow cytometry using a LSR Fortessa (BD Biosciences) and analyzed with FlowJo software (TreeStar). The percent killing was determined by calculating the reduction of p24+ CD4+ T cells mediated by PGT121 antibody relative to a no antibody control.
PBMCs (FIG. 3) or monocytes (FIG. 4) were treated with DMSO or TLR8 agonist for 5 days (FIG. 3) or 1 day (FIG. 4) and then co-cultured for 1 day with autologous HIV-infected CD4 T cells−/+anti-HIV Env antibody PGT121. Reductions in % p24+ CD4+ T cells, relative to no antibody control, were measured by FACS. […]

CCCC[C@H](CO)Nc1nc(N)nc2cccnc12 [Example 15]
Patients in whom increases were seen ([1]; 100 nM): 3 of 5 | Median HIV-specific polyfunctional CD8 T cells (% proliferating CD8+ cells double positive for IFN-γ and TNF-α) ([1]; 100 nM with HIV peptide pool): 0.99% | Patients in whom increases were seen ([1]; 1000 nM): 4 of 5 | Increase of median HIV-specific polyfunctional CD8 T cells ([1]; 1000 nM combined with the HIV specific peptide pool, p<0.05): 2.7 fold | Median HIV-specific polyfunctional CD8 T cells (% proliferating CD8+ cells double positive for IFN-γ and TNF-α) ([1]; 1000 nM with HIV peptide pool): 2.01% | PGT121-mediated killing of HIV-infected CD4+ T cells compared to the DMSO control (HIV-infected CD4 T cells): markedly enhanced
